One may read the IC50 as the concentration that inhibits the measured activity by half.

Entries after “also recorded” stand apart in the source; their conditions may differ. Where only a bound is given, the exact number is not on record here.

For assay [1], the system named is cullin neddylation in HCC95 cells. The assay is described as follows: Cullin neddylation immunoblot, HCC95. Type of assay: cell-based, human. To be noted: for Effect on levels of neddylated cullins: HCC95, 10 μM dosed at 0 and 24 hours, harvested at 48 hours.
Assay [2] addresses DCN1 (PONY domain) binding to N-terminally acetylated UBE2M peptide (Homo sapiens, UniProt Q96GG9).
The target in assay [3] is DCN1-dependent neddylation from AcUBE2M to CUL2CTD-RBX1 (Homo sapiens, UniProt Q96GG9). Type of assay: biochemical.
DCN1-dependent neddylation from AcUBE2M to CUL2CTD-RBX1, sequence (Q96GG9 60-248 limits assumed): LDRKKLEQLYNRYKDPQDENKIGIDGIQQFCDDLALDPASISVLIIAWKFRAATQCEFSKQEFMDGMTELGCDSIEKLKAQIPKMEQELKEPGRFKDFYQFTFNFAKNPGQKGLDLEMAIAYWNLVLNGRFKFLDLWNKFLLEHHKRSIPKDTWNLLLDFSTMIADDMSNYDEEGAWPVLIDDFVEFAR
The target in a further assay is DCN2 (Homo sapiens, UniProt Q6PH85). The assay is described as follows: Pulse-chase neddylation assay with DCN2. Type of assay: biochemical. To be noted: 10 μM.
DCN2, sequence (Q6PH85 60-248 limits assumed): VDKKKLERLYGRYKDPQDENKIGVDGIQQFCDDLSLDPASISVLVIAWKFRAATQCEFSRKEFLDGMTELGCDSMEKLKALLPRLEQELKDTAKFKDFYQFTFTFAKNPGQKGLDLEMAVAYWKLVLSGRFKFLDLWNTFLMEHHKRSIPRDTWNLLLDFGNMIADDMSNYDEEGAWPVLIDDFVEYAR
For another assay, the target named is T1, DCN3 (Homo sapiens, UniProt Q8IWE4).
T1 sequence (Q8IWE4 86-278 limits assumed): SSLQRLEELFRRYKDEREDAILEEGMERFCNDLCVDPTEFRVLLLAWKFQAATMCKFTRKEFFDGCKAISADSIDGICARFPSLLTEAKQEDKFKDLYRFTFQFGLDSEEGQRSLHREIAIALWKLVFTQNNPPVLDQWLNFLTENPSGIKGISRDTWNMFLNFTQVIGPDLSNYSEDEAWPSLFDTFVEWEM
The assay is described as follows: Pulse-chase neddylation assay with DCN3. Type of assay: biochemical.

The next assay addresses T2, DCN4 (Homo sapiens, UniProt Q92564).
T2 sequence (Q92564 101-287 limits assumed): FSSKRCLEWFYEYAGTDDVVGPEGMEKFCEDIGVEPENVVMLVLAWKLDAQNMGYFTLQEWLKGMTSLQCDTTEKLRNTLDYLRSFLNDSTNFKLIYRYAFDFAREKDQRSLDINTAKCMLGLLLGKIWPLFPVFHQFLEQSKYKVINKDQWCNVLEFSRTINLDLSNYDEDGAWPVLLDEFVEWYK
The assay is described as follows: Pulse-chase neddylation assay with DCN4. It is filed as biochemical.

A further assay addresses T3, DCN5 (Homo sapiens, UniProt Q9BTE7).
T3 sequence (Q9BTE7 46-232 limits assumed): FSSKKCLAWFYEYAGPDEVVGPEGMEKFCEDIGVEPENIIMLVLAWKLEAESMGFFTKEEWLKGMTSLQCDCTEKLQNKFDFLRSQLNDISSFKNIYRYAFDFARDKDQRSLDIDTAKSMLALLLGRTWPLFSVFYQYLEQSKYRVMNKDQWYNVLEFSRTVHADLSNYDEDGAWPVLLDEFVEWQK
The assay is described as follows: Pulse-chase neddylation assay with DCN5. It is filed as biochemical.

The test system of assay [4] is N-acetyl-UBE2M interactions in 293T cells. The assay is described as follows: AP-MS TMT interaction proteomics of UBE2M. It is filed as cell-based, human.
For assay [5], the system named is levels of CRL substrates in HCC95 cells. The assay is described as follows: Immunoblot of cullin-RING ligase substrates, HCC95. Type of assay: cell-based, human.
For assay [6], the system named is anchorage independent growth of HCC95 cells. Kind of assay: Soft agar colony formation assay. Type of assay: cell-based, human. To be noted: 10 μM.
Assay [7] concerns the target UBE2M-DCN1 interaction in 293T cells (Homo sapiens, UniProt Q96GG9). The assay is described as follows: Co-immunoprecipitation of DCN1 with UBE2M-FLAG-HA in cells. It is filed as cell-based. To be noted: treated 24 hours.
The subject of assay [8] is DCN1-independent NEDD8 ligation from AcUBE2M to CUL2CTD. The assay is described as follows: Pulse-chase assay, DCN1-independent neddylation. It is filed as biochemical, human.
Another assay concerns the target DCN1 (Homo sapiens, UniProt Q96GG9). Kind of assay: Covalent adduct formation by LC-TOF mass spectrometry, DCN1. Type of assay: binding. To be noted: 30 μM PONY domain, 60 μM compound, overnight / 24-hour incubation.
A further assay addresses DCN2 PONY domain (Homo sapiens, UniProt Q6PH85). The assay is described as follows: Covalent adduct formation by TOF mass spectrometry, DCN2. Type of assay: binding. To be noted: 30 μM PONY domain, 60 μM compound, overnight.
Another assay concerns the target T4, DCN3 PONY domain (Homo sapiens, UniProt Q8IWE4).
T4 sequence (Q8IWE4 86-278 limits assumed): T1 sequence (Q8IWE4 86-278 limits assumed)
The assay is described as follows: Covalent adduct formation by TOF mass spectrometry, DCN3. It is filed as binding. To be noted: 30 μM PONY domain, 60 μM compound, overnight.

In another assay the target is T5, DCN4 PONY domain (Homo sapiens, UniProt Q92564).
T5 sequence (Q92564 101-287 limits assumed): T2 sequence (Q92564 101-287 limits assumed)
Kind of assay: Covalent adduct formation by TOF mass spectrometry, DCN4. Type of assay: binding. To be noted: 30 μM PONY domain, 60 μM compound, overnight.

For another assay, the target named is T6, DCN5 PONY domain (Homo sapiens, UniProt Q9BTE7).
T6 sequence (Q9BTE7 46-232 limits assumed): T3 sequence (Q9BTE7 46-232 limits assumed)
Kind of assay: Covalent adduct formation by TOF mass spectrometry, DCN5. Type of assay: binding. To be noted: 30 μM PONY domain, 60 μM compound, overnight.

The target in the next assay is C115A DCN1, C115G DCN1 (Homo sapiens, UniProt Q96GG9, C115A). Kind of assay: Covalent adduct formation by TOF mass spectrometry, DCN1 Cys115 mutants. Type of assay: binding.
C115A DCN1, C115G DCN1, sequence (Q96GG9 62-259 C115A): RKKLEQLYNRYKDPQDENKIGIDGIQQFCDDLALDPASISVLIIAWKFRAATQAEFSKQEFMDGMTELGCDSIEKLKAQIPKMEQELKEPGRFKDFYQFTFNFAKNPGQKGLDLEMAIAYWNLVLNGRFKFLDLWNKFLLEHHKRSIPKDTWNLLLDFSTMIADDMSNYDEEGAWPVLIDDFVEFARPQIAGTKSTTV
A further assay has as its target NEDD8 E1 enzyme. To be noted: read-out: biochemical IC50; cited from earlier work.
In assay [9] the test system is cellular neddylation / ubiquitination. To be noted: cited from earlier work.
The mark [10] stands for this setting: even at concentrations of 100 μM.

DCN1 (PONY domain) binding to N-terminally acetylated UBE2M peptide, sequence (Q96GG9 60-248 limits assumed): as the sequence (Q96GG9 60-248 limits assumed) above
DCN1, sequence (Q96GG9 60-248 limits assumed): as above
DCN2 PONY domain, sequence (Q6PH85 60-248 limits assumed): as the sequence (Q6PH85 60-248 limits assumed) above
UBE2M-DCN1 interaction in 293T cells, sequence (Q96GG9 whole entry): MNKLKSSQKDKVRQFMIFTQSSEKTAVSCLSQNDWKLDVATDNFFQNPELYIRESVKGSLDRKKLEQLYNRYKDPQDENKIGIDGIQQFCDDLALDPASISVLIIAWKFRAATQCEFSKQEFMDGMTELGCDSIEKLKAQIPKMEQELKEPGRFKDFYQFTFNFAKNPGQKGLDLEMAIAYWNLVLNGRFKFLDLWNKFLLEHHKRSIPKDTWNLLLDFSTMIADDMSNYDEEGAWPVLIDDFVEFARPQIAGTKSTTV

As to `CCCC(C)N1CCC(N(Cc2ccccc2NC(=O)CC)C(=O)Nc2cccc(C(F)(F)F)c2)CC1` (stereo not drawn) [NAcM-COVCTRL, N-(2-((1-(1-(pentan-2-yl)piperidin-4-yl)-3-(3-(trifluoromethyl)phenyl)ureido)methyl)phenyl)propionamide], the “Effect on levels of neddylated cullins” value in assay [1] is recorded as “relatively reduced potency”.

With `CCCCN1CCC(N(Cc2ccccc2)C(=O)Nc2ccc(Cl)c(Cl)c2)CC1` [NAcM-OPT, 1-benzyl-1-(1-butylpiperidin-4-yl)-3-(3,4-dichlorophenyl)urea], the “Enhanced potency relative to NAcM-HIT, TR-FRET” value in [2] stood at 100 fold. Moreover, the “Increased potency toward the neddylation reaction relative to NAcM-HIT” value in [3] turned out to be 25 fold. At DCN2, the “Inhibition of DCN2-stimulated neddylation” value is on record as “inhibited”. Moreover, the “Activity toward DCN3” value on DCN3 (10 μM) is listed as “no activity”. The “Activity toward DCN4” value at DCN4 (10 μM) is “no activity”. At DCN5 (10 μM), the “Activity toward DCN5” value is “no activity”. In assay [4], the “Fold decrease in UBE2M binding: CUL3” value is 1.9 fold, the “Fold decrease in UBE2M binding: CUL5” value came to 3.2 fold and the “Fold decrease in UBE2M binding: DCN1” value is reported as “≈ 8 fold”. The “Effect on levels of neddylated cullins” value in assay [1] is on record as “reduced levels of neddylated cullins”. Further, in [5] (HCC95, 10 μM), the “Levels of CRL substrates” value is “Neither NAcM-OPT treatment nor DCN1 shRNA stabilizes”. The “Growth / colony formation of HCC95 cells in soft agar” value in assay [6] is recorded as “blocks growth”.

In the case of `CCCCN1CCC(N(Cc2ccccc2)C(=O)Nc2cccnc2)CC1` [NAcM-NEG, 1-benzyl-1-(1-butylpiperidin-4-yl)-3-(pyridin-3-yl)urea], the “Effect on DCN1-UBE2M interaction by TR-FRET” value in assay [2] (setting [10]) is on record as “no effect”. Also, the “Effect on neddylation by enzyme assays” value in assay [3] (setting [10]) is listed as “no effect”. Besides, in assay [7], the “Co-precipitation of DCN1 with UBE2M” value is reported as “interaction was observed”. For the same molecule, the “Effect on levels of neddylated cullins” value in [1] is reported as “no effect”.

Regarding `O=C(Nc1cccc(C(F)(F)F)c1)NC1CCN(Cc2ccccc2)CC1` [NAcM-HIT, 1-(1-benzylpiperidin-4-yl)-3-(3-(trifluoromethyl)phenyl)urea], the “Inhibition of DCN1-independent NEDD8 ligation” value in [8] is reported as “did not inhibit”.

Regarding `C=CC(=O)Nc1ccccc1CN(C(=O)Nc1cccc(C(F)(F)F)c1)C1CCN(C(C)CCC)CC1` (stereo not drawn) [NAcM-COV, N-(2-((1-(1-(pentan-2-yl)piperidin-4-yl)-3-(3-(trifluoromethyl)phenyl)ureido)methyl)phenyl)acrylamide], the “Potency increase by electrophile, NAcM-COV versus NAcM-COVCTRL, TR-FRET” value in assay [2] is given as > 30 fold. The “Potency increase by electrophile, NAcM-COV versus NAcM-COVCTRL, neddylation” value in assay [3] is reported as 2.5 fold. Further, on DCN3 (50 μM), the “Activity towards DCN3” value was “Partial activity”. In addition, at DCN4 (50 μM), the “Activity towards DCN4” value is recorded as “Partial activity”. The “Inhibition of DCN5” value on DCN5 was “lack of inhibition”. For the same molecule, at DCN1, the “Covalent adduct formation with DCN1” value was “most effective; also recorded: corresponded to adducts”. For the same molecule, the “Covalent adduct formation with DCN2” value at DCN2 PONY domain was “corresponded to adducts”. The “Covalent adduct formation with DCN3” value at DCN3 PONY domain is “corresponded to adducts”. For the same molecule, the “Covalent adduct formation with DCN4” value at DCN4 PONY domain is “Both modified and unmodified forms”. The “Covalent adduct formation with DCN5” value at DCN5 PONY domain is on record as “no evidence of covalent linkage”. At C115A DCN1, C115G DCN1, the “Covalent adduct formation with DCN1 Cys115 replaced by Ala or Gly” value is “prevented covalent adduct formation”. Further, the “Effect on levels of neddylated cullins” value in [1] was “reduced levels of neddylated cullins; also recorded: most potent inhibition”. For the same molecule, the “Growth / colony formation of HCC95 cells in soft agar” value in assay [6] is “blocks growth”.

With `NS(=O)(=O)OC[C@@H]1C[C@@H](n2ccc3c(N[C@H]4CCc5ccccc54)ncnc32)C[C@@H]1O` [MLN4924], the “Effect on neddylation in cells” value in [1] (single dose, 1 μM) is on record as “eliminates all neddylation”. Also, the “Levels of CRL substrates” value in assay [5] (HCC95, MLN4924 1 μM) is “high-level accumulation”. Besides, the IC50 on NEDD8 E1 enzyme is 5 nM. In addition, the “concentration at which cell based activity is penetrant” value in [9] was 0.3 to 1 µM. Besides, the “Reduction of total cellular ubiquitination” value in [9] (total blockade of neddylation) is 10–20%.
